According to patent US20070010671A1, “Novel quinazoline derivatives and methods of treatment related to the use thereof” (priority 2003, published 2007):

The compounds below were run against MCH receptor (Homo sapiens, UniProt Q99705) (assay: High throughput functional screening FLIPR/FDSS6000: inhibition of MCH-evoked intracellular Ca2+ changes). Conditions: class by percent of control at 10^-7 M or IC50.
Assay type: cell-based
In short: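 Antagonism is measured as inhibition of the intracellular calcium rise triggered by 50 nM MCH in cells bearing a constitutively active, non-endogenous form of the receptor. Cells are dye-loaded with Fluo4-AM and exposed to compound for 3 min at 37° C before agonist addition.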

Row | SMILES | class
1 | Cc1cc(F)ccc1NC(=S)NC[C@H]1CC[C@@H](Nc2nc(N(C)C)c3ccccc3n2)CC1 [compound 739] | 3 (Class 3: The value of percent of control at 10^−7 M was more than 60% or the value of IC50 was more than 200 nM.)
2 | Cc1ccc(F)c(NC(=O)NC[C@H]2CC[C@@H](Nc3nc(N(C)C)c4ccccc4n3)CC2)c1 [compound 497] | 3 (Class 3: The value of percent of control at 10^−7 M was more than 60% or the value of IC50 was more than 200 nM.)
3 | CN(C)c1nc(N[C@H]2CC[C@@H](CNC(=O)Nc3cc(C(F)(F)F)ccc3F)CC2)nc2ccccc12 [compound 496] | 3 (Class 3: The value of percent of control at 10^−7 M was more than 60% or the value of IC50 was more than 200 nM.)
4 | Cc1ccc(NC(=O)NC[C@H]2CC[C@@H](Nc3nc(N(C)C)c4ccccc4n3)CC2)c([N+](=O)[O-])c1 [compound 445, N-[(cis-4-{[4-(dimethylamino)quinazolin-2-yl]amino}cyclohexyl)methyl]-N′-(4-methyl-2-nitrophenyl)urea] | 2 (Class 2: The value of percent of control at 10^−7 M was from 40% to 60% or the value of IC50 was from 50 nM to 200 nM.)
5 | CN(C)c1nc(N[C@H]2CC[C@@H](CNC(=O)Nc3c(Br)cc(F)cc3Br)CC2)nc2ccccc12 [compound 482, N-(2,6-dibromo-4-fluorophenyl)-N′-[(cis-4-{[4-(dimethylamino)quinazolin-2-yl]amino}cyclohexyl)methyl]urea] | 1 (Class 1: The value of percent of control at 10^−7 M was less than 40% or the value of IC50 was less than 50 nM.)
6 | CN(C)c1nc(N[C@H]2CC[C@@H](CNC(=O)Nc3ccc(Cl)c(C(F)(F)F)c3)CC2)nc2ccccc12 [compound 548] | 3 (Class 3: The value of percent of control at 10^−7 M was more than 60% or the value of IC50 was more than 200 nM.)
7 | CN(C)c1nc(N[C@H]2CC[C@@H](NC(=S)NC3CCCCCCCCCCC3)CC2)nc2ccccc12 [compound 285] | 3 (Class 3: The value of percent of control at 10^−7 M was more than 60% or the value of IC50 was more than 200 nM.)
8 | COc1ccc(NC(=O)NC[C@H]2CC[C@@H](Nc3nc(N(C)C)c4ccccc4n3)CC2)c(OC)c1 [compound 479] | 3 (Class 3: The value of percent of control at 10^−7 M was more than 60% or the value of IC50 was more than 200 nM.)
9 | CN(C)c1nc(N[C@H]2CC[C@@H](CNC(=O)Nc3cc(Cl)cc(Cl)c3)CC2)nc2ccccc12 [compound 424, N-(3,5-dichlorophenyl)-N′-[(cis-4-{[4-(dimethylamino)quinazolin-2-yl]amino}cyclohexyl)methyl]urea] | 1 (Class 1: The value of percent of control at 10^−7 M was less than 40% or the value of IC50 was less than 50 nM.)
10 | CN(C)c1nc(N[C@H]2CC[C@@H](CNC(=S)Nc3ccc(SC(F)(F)F)cc3)CC2)nc2ccccc12 [compound 656] | 3 (Class 3: The value of percent of control at 10^−7 M was more than 60% or the value of IC50 was more than 200 nM.)
11 | CN(C)c1nc(N[C@H]2CC[C@@H](NC(=O)Nc3ccccc3C#N)CC2)nc2ccccc12 [compound 340] | 3 (Class 3: The value of percent of control at 10^−7 M was more than 60% or the value of IC50 was more than 200 nM.)
12 | Cc1ccc(C)c(NC(=O)NC[C@H]2CC[C@@H](Nc3nc(N(C)C)c4ccccc4n3)CC2)c1 [compound 481] | 3 (Class 3: The value of percent of control at 10^−7 M was more than 60% or the value of IC50 was more than 200 nM.)
13 | CCc1cccc(NC(=S)N[C@H]2CC[C@@H](Nc3nc(N(C)C)c4ccccc4n3)CC2)c1 [compound 307] | 2 (Class 2: The value of percent of control at 10^−7 M was from 40% to 60% or the value of IC50 was from 50 nM to 200 nM.)
14 | CCCCCCCOc1ccc(NC(=O)NC[C@H]2CC[C@@H](Nc3nc(N(C)C)c4ccccc4n3)CC2)cc1 [compound 554] | 3 (Class 3: The value of percent of control at 10^−7 M was more than 60% or the value of IC50 was more than 200 nM.)
15 | COc1cc([N+](=O)[O-])ccc1NC(=O)NC[C@H]1CC[C@@H](Nc2nc(N(C)C)c3ccccc3n2)CC1 [compound 503] | 3 (Class 3: The value of percent of control at 10^−7 M was more than 60% or the value of IC50 was more than 200 nM.)
16 | Cc1ccc(NC(=S)N[C@H]2CC[C@@H](Nc3nc(N(C)C)c4ccccc4n3)CC2)c(C)c1 [compound 249, N-(cis-4-{[4-(dimethylamino)quinazolin-2-yl]amino}cyclohexyl)-N′-(2,4-dimethylphenyl)thiourea] | 1 (Class 1: The value of percent of control at 10^−7 M was less than 40% or the value of IC50 was less than 50 nM.)
17 | CN(C)c1nc(N[C@H]2CC[C@@H](CNC(=O)Nc3cccc(Cl)c3)CC2)nc2ccccc12 [compound 415, N-(3-chlorophenyl)-N′-[(cis-4-{[4-(dimethylamino)quinazolin-2-yl]amino}cyclohexyl)methyl]urea] | 2 (Class 2: The value of percent of control at 10^−7 M was from 40% to 60% or the value of IC50 was from 50 nM to 200 nM.)

Same assay, conditions: class by percent of control at 10^-7 M or by IC50; read-out: class

Row | IC50 | SMILES
18 | > 200 nM | CN(C)c1nc(N[C@H]2CC[C@@H](CNC(=S)Nc3ccc(F)c(Cl)c3)CC2)nc2ccccc12 [compound 804]
19 | < 50 nM | Cc1cccc(C)c1NC(=O)N[C@H]1CC[C@@H](Nc2nc(N(C)C)c3ccccc3n2)CC1 [compound 19, N-(cis-4-{[4-(dimethylamino)quinazolin-2-yl]amino}cyclohexyl)-N′-(2,6-dimethylphenyl)urea]
20 | 50 to 200 nM | CSc1ccccc1NC(=O)N[C@H]1CC[C@@H](Nc2nc(N(C)C)c3ccccc3n2)CC1 [compound 71]
21 | > 200 nM | Cc1ccc(C)c(NC(=O)N[C@H]2CC[C@@H](Nc3nc(N(C)C)c4ccccc4n3)CC2)c1 [compound 82]
22 | > 200 nM | C=CCOC(=O)N[C@H]1CC[C@@H](Nc2nc(N(C)C)c3ccccc3n2)CC1 [compound 857]
23 | 50 to 200 nM | CN(C)c1nc(N[C@H]2CC[C@@H](NC(=O)OCCOCc3ccccc3)CC2)nc2ccccc12 [compound 846]
24 | 50 to 200 nM | CCCNC(=S)N[C@H]1CC[C@@H](Nc2nc(N(C)C)c3ccccc3n2)CC1 [compound 193, N-(cis-4-{[4-(dimethylamino)quinazolin-2-yl]amino}cyclohexyl)-N′-propylthiourea]
25 | > 200 nM | CN(C)c1nc(N[C@H]2CC[C@@H](CNC(=S)Nc3cccnc3)CC2)nc2ccccc12 [compound 809]
26 | < 50 nM | Cc1cc([N+](=O)[O-])ccc1NC(=O)N[C@H]1CC[C@@H](Nc2nc(N(C)C)c3ccccc3n2)CC1 [compound 108, N-(cis-4-{[4-(dimethylamino)quinazolin-2-yl]amino}cyclohexyl)-N′-(2-methyl-4-nitrophenyl)urea]
27 | > 200 nM | CN(C)c1nc(N[C@H]2CC[C@@H](NC(=S)NCC3CCCO3)CC2)nc2ccccc12 (relative stereo) [compound 196]
28 | > 200 nM | CN(C)c1nc(N[C@H]2CC[C@@H](NC(=S)NC34CC5CC(CC(C5)C3)C4)CC2)nc2ccccc12 (relative stereo) [compound 200]
29 | > 200 nM | CN(C)c1nc(N[C@H]2CC[C@@H](CNC(=S)NCCCN3CCOCC3)CC2)nc2ccccc12 [compound 810]

Same assay, conditions: class by percent of control at 10^−7 M or by IC50; read-out: class

Row | SMILES | IC50
30 | CN(C)c1nc(N[C@H]2CC[C@@H](NC(=O)c3ccc(Oc4ccc(Br)cc4)nc3)CC2)nc2ccccc12 [Example 1061, 6-(4-bromophenoxy)-N-(cis-4-{[4-(dimethylamino)quinazolin-2-yl]amino}cyclohexyl)nicotinamide] | > 200 nM
31 | Cc1ccc(OCC(=O)N[C@H]2CC[C@@H](Nc3nc(N(C)C)c4ccccc4n3)CC2)cc1C [Example 1076, N-(cis-4-{[4-(dimethylamino)quinazolin-2-yl]amino}cyclohexyl)-2-(3,4-dimethylphenoxy)acetamide] | > 200 nM
32 | CN(C)c1nc(N[C@H]2CC[C@@H](NC(=O)c3ccc(Oc4ccccc4Br)nc3)CC2)nc2ccccc12 [Example 1052, 6-(2-bromophenoxy)-N-(cis-4-{[4-(dimethylamino)quinazolin-2-yl]amino}cyclohexyl)nicotinamide] | > 200 nM
33 | CN(C)c1nc(N[C@H]2CC[C@@H](NC(=O)c3ccc(Oc4cccc(Br)c4)nc3)CC2)nc2ccccc12 [Example 1072, 6-(3-bromophenoxy)-N-(cis-4-{[4-(dimethylamino)quinazolin-2-yl]amino}cyclohexyl)nicotinamide] | > 200 nM

Other lines, results leading:

Row | IC50 | SMILES
34 | 50 to 200 nM | CN(C)c1nc(N[C@H]2CC[C@@H](NC(=O)C(O)c3cc(F)ccc3F)CC2)nc2ccccc12 (relative stereo) [Example 1115, 2-(2,5-difluorophenyl)-N-(cis-4-{[4-(dimethylamino)quinazolin-2-yl]amino}cyclohexyl)-2-hydroxyacetamide]
35 | < 50 nM | CN(C)c1nc(N[C@H]2CC[C@@H](CNC(=O)c3cc(F)cc(F)c3)C2)nc2ccccc12 [Example 1130, N-[((1R,3S)-3-{[4-(dimethylamino)quinazolin-2-yl]amino}cyclopentyl)methyl]-3,5-difluorobenzamide]
36 | 50 to 200 nM | CN(C)c1nc(N[C@H]2CC[C@@H](NC(=O)C(O)c3ccc(F)c(F)c3)CC2)nc2ccccc12 (relative stereo) [Example 1108, 2-(3,4-difluorophenyl)-N-(cis-4-{[4-(dimethylamino)quinazolin-2-yl]amino}cyclohexyl)-2-hydroxyacetamide]
37 | < 50 nM | Cc1ccc(F)cc1CNC(=O)[C@H]1CC[C@@H](Nc2nc(N(C)C)c3ccccc3n2)CC1 [Example 1146, cis-4-{[4-(dimethylamino)quinazolin-2-yl]amino}-N-(5-fluoro-2-methylbenzyl)cyclohexanecarboxamide]
38 | < 50 nM | CN(C)c1nc(N[C@H]2CC[C@@H](C(=O)NCc3c(F)cccc3Cl)CC2)nc2ccccc12 [Example 1179, cis-N-(2-chloro-6-fluorobenzyl)-4-{[4-(dimethylamino)quinazolin-2-yl]amino}cyclohexanecarboxamide]
39 | > 200 nM | CN(C)c1nc(N[C@H]2CC[C@@H](C(=O)Nc3nc4ccccc4[nH]3)CC2)nc2ccccc12 [Example 1198, cis-N-1H-benzimidazol-2-yl-4-{[4-(dimethylamino)quinazolin-2-yl]amino}cyclohexanecarboxamide]
